Measured values reported in paper PMC12526058, “1,2,4-Thiadiazolidin-3,5-Diones as Inhibitors of Cysteine Proteases” (Molecules, 2025).
Several values for one entry are separate records, joined by “and”; a condition that tells them apart may be missing. Equal values may be shown once. Entries after “also recorded” stand apart in the source; their conditions may differ.

Key:
[1] = target: Bromelain (Ananas comosus, UniProt P14518); parameters: method as in PMID 33177555; conditions: cited from earlier work
[2] = target: T1, Papain (Carica papaya, UniProt P00784); parameters: method as in PMID 21329361; conditions: cited from earlier work
T1 construct: purchased Sigma

[3] = system: PLpro; conditions: noncovalent, binding to S4–S3 subsites; read-out: IC50 for inhibition of PLpro; cited from earlier work
[4] = target: T1, Papain; assay: Papain inhibition, IC50 (Z-Phe-Arg-MCA substrate, 10 min pre-incubation); type: biochemical; conditions: for IC50 / IC50 for inhibition of Papain: 30 °C, 10 min pre-incubation, 100 mM sodium phosphate, 1 mM EDTA, pH 6.0, Z-Phe-Arg-MCA, Papain 120 nM
Experimental: Papain and Bromelain were purchased from Sigma. Papain was previously activated at 25 °C in a degassed 100 mM sodium phosphate, 1 mM EDTA, pH 6.0 buffer containing 5 mM DTT (dithiothreitol) for 10 min, as previously described. To remove the DTT excess, a 1 mL solution of activated Papain was loaded on a 3 mL syringe with 1 mL Sephadex G25 size exclusion resin (Amersham Pharmacia, Amersham, UK). The enzyme was eluted with the same assay buffer, and its activity was monitored using Z-Phe-Arg-MCA as the substrate.
The activities of Cathepsin L and Papain were assessed using Z-Phe-Arg-MCA.

[5] = Stability of THIA derivatives in organic solvents and buffers (LC-MS); type: physicochemical; conditions: for Stability of 10 mM stock solutions in DMSO stored at −20 °C: 10 mM in DMSO, freezer −20 °C, LC-MS
Experimental: We chose THIA-3 as a reference due to its simplicity in larger-scale synthesis to evaluate the stability of this class of compounds. […] In the Tris buffer, decomposition to 1,3-diphenylurea was very slow, with some decomposition only apparent after 12 h of incubation (Figure S1B). We also evaluated the stability of 10 mM stock solutions of the ten THIAs in DMSO stored in a freezer (−20 °C) by Liquid Chromatography Mass Spectrometry (LC-MS). […] DMSO is also considered a reagent, but we have not explored the decomposition of THIA compounds in DMSO further, as it falls outside the scope of this work.
Figure S1. (A) - Stability THIA-3 in DMSO with 1% H2O. (B)- Stability of THIA-3 in water,100 mM sodium phosphate, Tris buffer pH 7.4, with 1 to 40% ACN.
Figure S2. Stability of THIAs in dimethyl sulfoxide and stored at -20 °C

[6] = target: SARS-CoV-2 3CLpro (Severe acute respiratory syndrome coronavirus 2, UniProt P0DTD1); assay: 3CLpro inhibition, IC50 (FRET substrate, 10 min pre-incubation); type: biochemical
[7] = target: SARS-CoV-2 PLpro (Severe acute respiratory syndrome coronavirus 2, UniProt P0DTD1); assay: biochemical
[8] = target: T1, Papain; assay: Papain inactivation kinetics, two-step irreversible mechanism; type: biochemical; conditions: Papain 48nM, Z-FR-MCA 1.5µM, 100 mM sodium phosphate, 1 mM EDTA, pH 6.0; for KI (inactivation): read-out: Ki, Papain inactivation (Ki = k-3/k3)
Description: (§1) This is confirmed by kinetic analyses of the reaction of THIA-3 with Papain, used as a diagnostic method as previously reported. The kinetic constant values of the reaction of the ten THIA compounds with Papain, for the reaction paths shown below, are reported in Table S2.
Table S2. Values of the kinetic constants for Papain inactivation kinetics analyses by all THIA compounds obtained for a two-step irreversible mechanism (see below the reaction paths) as reported in the reference (31)
Conditions: Papain 48nM, substrate Z-FR-MCA 1.5µM. Buffer: 100 mM sodium phosphate, 1 mM EDTA, pH 6.0. The kinetic constants for the reaction are indicated in the scheme below.
Ki represents the relation: Ki = k-3/k3, which is the dissociation constant describing the binding affinity between the inhibitor and the enzyme. In contrast, the IC50 is the concentration of inhibitor required to reduce enzymatic activity to half of its uninhibited value. The IC50 is less precise than Ki and depends on measurement conditions and the mechanism of inhibition. […] It is noteworthy that kinetic constants for Papain inactivation by THIA compounds are consistent with a two-step irreversible mechanism.

[9] = target: T1, Papain; assay: Type of inhibition (time dependence, reversibility) on Papain; type: biochemical; conditions: reverted by reducing agents
Experimental: (§2) Initially, we identified the type of inhibition in each protease using THIA-3 as a reference compound for all the tested THIA derivatives. […] Due to the susceptibility of the THIA derivatives to reducing agents, such as Cys or DTT (Figure S4), the proteases Papain, Cathepsin L, 3CLpro, and PLpro were separately pre-activated by 5 mM DTT during 30 min, which was removed by gel filtration, forming stock solutions of the activated proteases, and then kept at −20 °C under an N2 atmosphere for future use.
as §1
(§3) Figure S3. […] The assay has been performed following the procedure described in Reference ACS Omega 6 (2021) 16584−16591. https://doi.org/10.1021/acsomega.1c01797.
Figure S4. Inhibition of Papain by THIA-3 and its reversibility by cysteine (Cys) as a reducing agent. Z-FR-MCA as substrate, Papain activity was assessed before and after pre-incubation with 5µM THIA-3 for 5 min, and then assayed after Cys addition (10 µM).

[10] = target: 3CLpro (Severe acute respiratory syndrome coronavirus 2, UniProt P0DTD1); assay: Type of inhibition (time dependence, reversibility) on 3CLpro; type: biochemical, SARS-CoV-2; conditions: reverted by reducing agents
Experimental: as §2, §1, §3

[11] = target: PLpro (Severe acute respiratory syndrome coronavirus 2, UniProt P0DTD1); assay: Type of inhibition (reversibility assay) on PLpro; type: biochemical, SARS-CoV-2
[12] = target: T2, Cathepsin L (Homo sapiens, UniProt P07711); assay: Type of inhibition on Cathepsin L; type: biochemical
T2 construct: made in house; host or cells: Pichia pastoris
Experimental: as §2

[13] = IC50 for inhibition of 3CLpro, 30 °C, 10 min pre-incubation, 50 mM Tris, 1 mM EDTA, pH 7.5, Abz-[…](Dnp)-NH2, 3CLpro 27 nM
[14] = IC50 for inhibition of 3CLpro (bound), unit inferred

T1 sequence (P00784 134-345): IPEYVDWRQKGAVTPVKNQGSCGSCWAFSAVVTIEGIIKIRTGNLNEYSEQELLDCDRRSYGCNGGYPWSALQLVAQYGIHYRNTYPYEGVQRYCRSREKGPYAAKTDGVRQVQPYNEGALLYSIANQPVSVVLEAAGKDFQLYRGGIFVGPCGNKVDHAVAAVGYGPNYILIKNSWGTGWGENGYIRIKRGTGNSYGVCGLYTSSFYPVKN
Bromelain, sequence (P14518 whole entry): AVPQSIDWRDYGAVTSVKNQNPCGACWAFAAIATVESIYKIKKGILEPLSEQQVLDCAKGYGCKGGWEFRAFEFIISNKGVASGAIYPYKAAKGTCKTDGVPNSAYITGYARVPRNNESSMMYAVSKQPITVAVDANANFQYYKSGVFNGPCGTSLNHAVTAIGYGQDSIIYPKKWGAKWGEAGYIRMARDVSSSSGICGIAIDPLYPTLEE
T2 sequence (P07711 114-333): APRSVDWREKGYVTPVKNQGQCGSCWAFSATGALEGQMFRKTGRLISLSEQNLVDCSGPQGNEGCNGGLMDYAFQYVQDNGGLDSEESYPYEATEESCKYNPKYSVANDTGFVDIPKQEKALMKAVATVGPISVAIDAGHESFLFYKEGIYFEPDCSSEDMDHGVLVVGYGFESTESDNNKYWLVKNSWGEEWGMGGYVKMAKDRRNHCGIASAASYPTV

SMILES	IC50 [4]	IC50 for inhibition of Papain [4]	Stability of 10 mM stock solutions in DMSO stored at −20 °C [5]	IC50 [6, 13] [nM]	IC50 [7] [µM]	k3, Papain inactivation [8] [µM/s]	k4, Papain inactivation [8] [s⁻¹]	KI (inactivation) [8] [nM]	also measured
CC(C)C[C@H](NC(=O)[C@H]1O[C@@H]1C(=O)O)C(=O)NCCCCN=C(N)N (relative stereo) [E-64, L-trans-Epoxysuccinyl-leucylamido (4-guanidino)butane]									Inhibition of Bromelain [1]: poor inhibition
Cc1ccc(-n2sc(=O)n(Cc3ccc(F)cc3)c2=O)cc1 [CCG-50014, 4-(4-fluorobenzyl)-2-p-tolyl-1,2,4-thiadiazolidine-3,5-dione]									Inhibition of Papain [2]: complete absence of papain inhibition; also recorded: failed to inhibit Papain
O=c1sn(-c2ccccc2)c(=O)n1Cc1ccccc1 [THIA-1]	2160 ± 90 nM	in the μM range	the most resistant	130 ± 10	25 ± 3	19.9	0.013	260	
COc1ccc(-n2sc(=O)n(Cc3ccccc3)c2=O)cc1 [THIA-2]	1280 ± 70 nM	in the μM range	the most resistant	120 ± 10	8.3 ± 0.8	24.6	0.012	320	
O=c1sn(-c2ccccc2)c(=O)n1-c1ccccc1 [THIA-3]	140 ± 20 nM			110 ± 10	8.5 ± 0.2	19.7	0.008	170	Type of inhibition of Papain [9]: covalent irreversible inhibition; also recorded: two-step covalent enzyme inactivation mechanism; Type of inhibition of 3CLpro [10]: covalent irreversible inhibition; also recorded: two-step covalent enzyme inactivation mechanism; Type of inhibition of PLpro [11]: reversible inhibition; Stability in DMSO with 1% water [5]: decomposed to 1,3-diphenylurea; Stability in acetonitrile (ACN) [5]: remained stable; Type of inhibition of Cathepsin L [12]: irreversible inhibition
COc1ccc(-n2sc(=O)n(-c3ccccc3)c2=O)cc1 [THIA-4]	70 nM and 71 nM			130 ± 10	7.6 ± 0.9	4.9	0.015	80	
COc1ccc(-n2sc(=O)n(-c3ccc(C)cc3)c2=O)cc1 [THIA-5]	102 ± 3 nM			90 ± 10	3.9 ± 0.7	12.3	0.021	270	
COc1ccc(-n2sc(=O)n(-c3ccc(OC)cc3)c2=O)cc1 [THIA-6]	10 ± 1 nM			30 ± 10	12.5 ± 0.9	14.5	0.019	270	Fold higher Papain inhibitory potency than THIA-4 ([4]; ratio of Papain IC50 values): sevenfold; Fold increase in Papain inhibitory potency compared to THIA-8 ([4]; ratio of Papain IC50 values): 240 fold; IC50 ([6]; unit inferred): < 50 nM
COc1ccc(-n2sc(=O)n(-c3ccc(Cl)cc3)c2=O)cc1 [THIA-7]	130 ± 10 nM	in the nanomolar range	the most resistant	10 ± 10	14.4 ± 0.7	17.3	0.009	160	IC50 [6, 14]: < 50 nM
COc1ccc(-n2sc(=O)n(C3CCCCC3)c2=O)cc1 [THIA-8]	2400 ± 100 nM	in the μM range	the most resistant	190 ± 10	4.2 ± 0.1	109.9	0.016	680	
Cc1ccc(-n2sc(=O)n(-c3ccccc3)c2=O)cc1 [THIA-9]	110 ± 10 nM			160 ± 80	10.4 ± 0.4	14.5	0.024	340	
O=c1sn(-c2ccc(F)cc2)c(=O)n1-c1ccccc1 [THIA-10]	10 nM and 11 nM		the most resistant; also recorded: THIA-10 No degradation detected	20 ± 10	10 ± 1	13.7	0.022	310	Type of inhibition of Papain [9]: two-step covalent enzyme inactivation mechanism; IC50 [6, 14]: < 50 nM
